Like-named read-outs stand apart in the source and are kept apart here. Blank lines part the entries; values can stand above or below the molecule they belong to.
Key:
U937 cells [1] = experiment: CellTiter 96 MTS cytotoxicity in U937 cells; details: U937, 48 hours; for IC50: read-out: U937 cells IC50 μM ± SD, MTS
Description: (§1) The U937 and THP-1 cell lines were seeded, 20 000 cells per well, in 96-well-plates. 50 μl medium ( ) was added to each well. At the same time test compounds were added in 5 different concentrations and incubated for 48 hours. The CellTiter 96® Non-Radioactive cell proliferation assay (Promega) was used to study the cytotoxicity of test in these cells. This assay is a colorimetric method for determining the number of viable cells in proliferation or chemosensitivity assays. […] MTS is bioreduced by cells into a formazan product that is soluble in tissue culture medium. The absorbance of the formazan at 490 nm can be measured directly from 96 well assay plates without additional processing.

HeLa/mut cells = experiment: MTT growth inhibition in cervical cancer cell line HeLa/mut; type: cell-based, human; details: for IC50: 4 days incubation, MTT, read-out: IC50 μM ± Standard Deviation
Description: The cervical cancer cell line HeLa/mut was seeded, 5×10^3 cells per well, in 96-well-plates. The medium was RMPI 1640 with 2 mM Glutamine and 10% Foetal Bovine Serum. 24 hours later the test compounds were added in 6 concentrations. The cells were incubated for 4 days. The MTT solution was added to each well and incubated for 4 hours. The samples were read by an ELISA reader at 540 nm. The IC50 values were determined from growth curves. The test compounds were troxacitabine elaidic amid, troxacitabine petroselaidoate, troxacitabine-petroselaidic amide and troxacitabine γ-linolenoate.

THP-1 cells [2] = experiment: CellTiter 96 MTS cytotoxicity in THP-1 cells; details: THP-1, 48 hours; for IC50: read-out: THP-1 cells IC50 μM ± SD, MTS
Description: as §1

MaTu/Adr cells = experiment: in-vitro activity in breast tumour line MaTu and adriamycin resistant subline MaTu/Adr; type: cell-based; details: MaTu/Adr vs. MaTu
THP-1 cells [3] = tested on: THP-1 cells
Description: as §1

U937 cells [4] = tested on: U937 cells
Description: as §1

several cell lines = details: prior art references; cited from earlier work

IC50 (HeLa/mut cells): 0.83 ± 0.59 µM
SMILES: CCCCC/C=C\C/C=C\C/C=C\CCCCC(=O)OC[C@H]1OC[C@@H](n2ccc(N)nc2=O)O1 [troxacitabine γ-linolenoate, Troxacitabine 2′-hydroxymethyl-6,9,12-linolenoate]
IC50 (U937 cells [1]): 0.09 µM | IC50 (THP-1 cells [2]): 0.16 µM

SMILES: CCCCCCCCC=CCCCCCCCC(=O)OCC1OCC(n2ccc(N)nc2=O)O1 (stereo not drawn) [Troxacitabine-5′-oleate, reference compound]
IC50 (U937 cells [1]): 0.09 µM | IC50 (THP-1 cells [2]): 0.07 µM

SMILES: CCCCCCCC/C=C/CCCCCCCC(=O)Nc1ccn([C@@H]2CO[C@H](CO)O2)c(=O)n1 [troxacitabine elaidic-amide, Troxacitabine N^4-Elaidic Acid Amide]
resistance factor (MaTu/Adr cells): 6

SMILES: CCCCCCCC/C=C/CCCCCCCC(=O)Nc1ccn(C2COC(CO)O2)c(=O)n1 (stereo not drawn) [α-troxacitabine N4-elaidic acid amide, reference compound]
IC50 (U937 cells [1]): 10 µM

SMILES: CCCCC/C=C\C/C=C\C/C=C\CCCCC(=O)Nc1ccn([C@@H]2CO[C@H](CO)O2)c(=O)n1 [Troxacitabine N^4-6,9,12-linolenic acid amide]
IC50 (U937 cells [1]): 0.007 µM | cytotoxicity in words (THP-1 cells [3]): even more active than the other compounds | IC50 (THP-1 cells [2]): 0.085 µM | cytotoxicity in words (U937 cells [4]): even more active than the other compounds

IC50 (HeLa/mut cells): 0.15 ± 0.07 µM
SMILES: CCCCCCCCCCC/C=C/CCCCC(=O)Nc1ccn([C@@H]2CO[C@H](CO)O2)c(=O)n1 [troxacitabine-petroselaidic amide, Troxacitabine N^4-petroselaidic acid amide]
IC50 (U937 cells [1]): 0.02 µM | IC50 (THP-1 cells [2]): 0.08 µM

SMILES: CCCCCCCCCCC/C=C\CCCCC(=O)OC[C@H]1OC[C@@H](n2ccc(N)nc2=O)O1 [Troxacitabine-2′-hydroxymethyl-petroselinoate]
cytotoxicity in words (U937 cells [1]): even more active than the other compounds | IC50 (U937 cells [1]): 0.007 µM | cytotoxicity in words (THP-1 cells [2]): even more active than the other compounds | IC50 (THP-1 cells [2]): 0.09 µM

SMILES: CCCCCCCCCCC/C=C\CCCCC(=O)Nc1ccn([C@@H]2CO[C@H](CO)O2)c(=O)n1 [troxacitabine-petroselinic amide, Troxacitabine N^4-petroselinic acid amide]
cytotoxicity in words (U937 cells [1]): even more active than the other compounds | cytotoxicity in words (THP-1 cells [2]): even more active than the other compounds

IC50 (HeLa/mut cells): 0.18 ± 0.12 µM
SMILES: CCCCCCCCCCC/C=C/CCCCC(=O)OC[C@H]1OC[C@@H](n2ccc(N)nc2=O)O1 [troxacitabine petroselaidoate, Troxacitabine-2′-hydroxymethyl-petroselaidoate]
IC50 (U937 cells [1]): 0.08 µM | fold more active than troxacitabine elaidic amid (HeLa/mut cells; relative to troxacitabine elaidic amide): 20 fold | IC50 (THP-1 cells [2]): 0.06 µM

SMILES: CCCCCCCCC=CCCCCCCCC(=O)Nc1ccn(C2COC(CO)O2)c(=O)n1 (stereo not drawn) [oleic acid amid derivative]
times better than the elaidic counterpart (several cell lines): 2 to 5 times

SMILES: CCCCCCCC/C=C/CCCCCCCC(=O)OC[C@H]1OC[C@@H](n2ccc(N)nc2=O)O1 [Troxacitabine-5′-elaidic acid ester, reference compound]
IC50 (U937 cells [1]): 0.06 µM | IC50 (THP-1 cells [2]): 0.06 µM
